Measurements published in ChEMBL document CHEMBL4507259 (2021).

What was measured:
[1] = target: Muscarinic acetylcholine receptor M3 (Homo sapiens) (UniProt P20309); conditions: Compound concentration 10.0 uM
[2] = target: Epithelial discoidin domain-containing receptor 1 (Homo sapiens) (UniProt Q08345); conditions: Compound concentration 1000.0 nM
[3] = target: Serine/threonine-protein kinase WNK3 (Homo sapiens) (UniProt Q9BYP7); conditions: Compound concentration 1000.0 nM
[4] = target: Glutamate [NMDA] receptor (Homo sapiens) (UniProt Q05586+Q12879+Q13224+O15399+O60391+Q14957+Q8TCU5); assay: NMDA CEREP ligand profiling; assay type: protein-complex assay
[5] = target: GABA-A receptor; anion channel (Homo sapiens) (UniProt P14867+P47870+P18507+P28472+P48169+Q99928+Q9UN88+P34903+O00591+O14764+Q8N1C3+P18505+P78334+P47869+P31644+Q16445); assay: Cl- channel (GABA-gated) CEREP ligand profiling; assay type: protein-complex assay; conditions: filed as antagonist; Compound concentration 10.0 uM
[6] = target: Cyclin-dependent kinase-like 5 (Homo sapiens) (UniProt O76039); conditions: Compound concentration 1000.0 nM
[7] = target: Proto-oncogene tyrosine-protein kinase ROS (Homo sapiens) (UniProt P08922); conditions: Compound concentration 1000.0 nM
[8] = target: Phosphatidylinositol 4-phosphate 3-kinase C2 domain-containing subunit beta (Homo sapiens) (UniProt O00750); conditions: Compound concentration 1000.0 nM
Sequence of Phosphatidylinositol 4-phosphate 3-kinase C2 domain-containing subunit beta (Homo sapiens) (O00750 whole entry, the tested form may be a part): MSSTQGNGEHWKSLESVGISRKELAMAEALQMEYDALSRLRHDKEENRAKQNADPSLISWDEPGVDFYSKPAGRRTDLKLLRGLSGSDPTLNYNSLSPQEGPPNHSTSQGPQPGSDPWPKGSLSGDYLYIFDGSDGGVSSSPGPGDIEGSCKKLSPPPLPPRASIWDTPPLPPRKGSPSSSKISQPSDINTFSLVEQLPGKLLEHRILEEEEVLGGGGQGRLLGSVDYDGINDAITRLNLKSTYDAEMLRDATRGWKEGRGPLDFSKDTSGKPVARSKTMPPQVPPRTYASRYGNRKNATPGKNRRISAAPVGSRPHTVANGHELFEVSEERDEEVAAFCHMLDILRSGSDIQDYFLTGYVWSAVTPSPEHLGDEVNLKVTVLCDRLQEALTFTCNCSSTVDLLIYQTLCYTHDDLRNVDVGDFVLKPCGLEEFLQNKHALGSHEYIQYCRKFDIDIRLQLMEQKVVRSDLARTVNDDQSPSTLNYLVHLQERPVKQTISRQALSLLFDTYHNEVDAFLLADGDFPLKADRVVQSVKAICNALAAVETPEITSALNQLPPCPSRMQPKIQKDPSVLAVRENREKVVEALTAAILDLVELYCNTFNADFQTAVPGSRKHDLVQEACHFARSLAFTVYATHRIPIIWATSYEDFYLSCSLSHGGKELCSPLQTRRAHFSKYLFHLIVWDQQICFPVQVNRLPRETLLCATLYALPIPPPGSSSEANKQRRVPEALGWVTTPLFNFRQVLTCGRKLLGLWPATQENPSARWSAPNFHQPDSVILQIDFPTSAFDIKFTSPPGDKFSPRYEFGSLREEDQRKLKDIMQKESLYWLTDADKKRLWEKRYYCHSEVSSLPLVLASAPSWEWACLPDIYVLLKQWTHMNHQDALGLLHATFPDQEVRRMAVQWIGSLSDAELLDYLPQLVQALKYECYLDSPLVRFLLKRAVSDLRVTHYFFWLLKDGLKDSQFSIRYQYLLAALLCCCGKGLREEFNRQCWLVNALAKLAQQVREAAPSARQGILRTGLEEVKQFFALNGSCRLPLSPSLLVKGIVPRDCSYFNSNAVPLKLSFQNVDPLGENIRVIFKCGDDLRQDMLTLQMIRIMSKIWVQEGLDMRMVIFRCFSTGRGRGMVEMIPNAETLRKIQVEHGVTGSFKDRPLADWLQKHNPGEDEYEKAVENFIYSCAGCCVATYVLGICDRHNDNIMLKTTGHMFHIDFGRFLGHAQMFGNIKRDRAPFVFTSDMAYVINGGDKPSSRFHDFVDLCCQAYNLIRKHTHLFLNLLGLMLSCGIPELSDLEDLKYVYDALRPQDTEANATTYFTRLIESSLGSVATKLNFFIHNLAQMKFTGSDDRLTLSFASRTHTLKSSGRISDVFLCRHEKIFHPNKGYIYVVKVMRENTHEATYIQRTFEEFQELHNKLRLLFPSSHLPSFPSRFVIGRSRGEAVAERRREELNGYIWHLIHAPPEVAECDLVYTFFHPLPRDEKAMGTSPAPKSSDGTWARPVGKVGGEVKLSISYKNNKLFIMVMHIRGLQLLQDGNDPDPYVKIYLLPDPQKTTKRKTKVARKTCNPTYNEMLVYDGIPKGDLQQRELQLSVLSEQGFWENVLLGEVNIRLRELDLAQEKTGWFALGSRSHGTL

[9] = target: MAP kinase-activated protein kinase 5 (Homo sapiens) (UniProt Q8IW41); conditions: Compound concentration 1000.0 nM
[10] = target: Sodium-dependent serotonin transporter (Homo sapiens, UniProt P31645); conditions: Compound concentration 10.0 uM
[11] = target: Serine/threonine-protein kinase 3 (Homo sapiens) (UniProt Q13188); conditions: Compound concentration 1000.0 nM
[12] = target: Dual specificity mitogen-activated protein kinase kinase 2 (Homo sapiens) (UniProt P36507); conditions: Compound concentration 1000.0 nM
[13] = target: 5-hydroxytryptamine receptor 5A (Homo sapiens) (UniProt P47898); conditions: Compound concentration 10.0 uM
[14] = target: Cyclin-dependent kinase 17 (Homo sapiens) (UniProt Q00537); conditions: Compound concentration 1000.0 nM
Sequence of Cyclin-dependent kinase 17 (Homo sapiens) (Q00537 whole entry, looked up): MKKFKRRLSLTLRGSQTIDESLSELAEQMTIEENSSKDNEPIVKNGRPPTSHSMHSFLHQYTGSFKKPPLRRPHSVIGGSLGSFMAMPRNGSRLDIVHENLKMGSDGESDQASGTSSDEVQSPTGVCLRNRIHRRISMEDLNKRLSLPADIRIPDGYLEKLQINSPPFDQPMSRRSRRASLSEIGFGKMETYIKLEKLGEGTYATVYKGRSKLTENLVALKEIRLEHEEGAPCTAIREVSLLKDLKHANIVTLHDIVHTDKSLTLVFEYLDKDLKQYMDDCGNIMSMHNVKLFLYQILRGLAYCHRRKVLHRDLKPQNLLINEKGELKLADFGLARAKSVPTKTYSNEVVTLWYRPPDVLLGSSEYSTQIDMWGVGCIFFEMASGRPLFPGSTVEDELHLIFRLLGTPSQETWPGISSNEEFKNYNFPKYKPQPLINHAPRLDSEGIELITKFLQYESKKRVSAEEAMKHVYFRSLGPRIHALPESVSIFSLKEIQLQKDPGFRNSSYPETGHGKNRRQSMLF

[15] = target: Serine/threonine-protein kinase Chk1 (Homo sapiens) (UniProt O14757); conditions: Compound concentration 1000.0 nM
[16] = target: T1, Muscarinic acetylcholine receptor M2 (Homo sapiens) (UniProt P08172); assay: M2 (h) CEREP ligand profiling; conditions: filed as antagonist, Compound concentration 10.0 uM
T1 sequence (whole entry): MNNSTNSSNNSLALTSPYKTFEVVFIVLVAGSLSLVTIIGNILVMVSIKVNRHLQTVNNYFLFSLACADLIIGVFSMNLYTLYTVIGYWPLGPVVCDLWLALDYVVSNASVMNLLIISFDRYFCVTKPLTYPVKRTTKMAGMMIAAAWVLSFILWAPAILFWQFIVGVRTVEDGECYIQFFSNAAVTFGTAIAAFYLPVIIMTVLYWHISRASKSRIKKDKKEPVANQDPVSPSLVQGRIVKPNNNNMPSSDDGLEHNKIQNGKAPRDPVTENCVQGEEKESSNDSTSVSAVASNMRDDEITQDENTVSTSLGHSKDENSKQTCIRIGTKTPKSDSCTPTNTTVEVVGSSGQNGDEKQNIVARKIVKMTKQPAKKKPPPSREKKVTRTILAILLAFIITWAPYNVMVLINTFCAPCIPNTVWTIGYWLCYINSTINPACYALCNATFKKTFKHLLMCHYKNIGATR

[17] = target: cAMP-dependent protein kinase catalytic subunit PRKX (Homo sapiens) (UniProt P51817); conditions: Compound concentration 1000.0 nM
[18] = target: 5'-AMP-activated protein kinase catalytic subunit alpha-2 (Homo sapiens) (UniProt P54646); conditions: Compound concentration 1000.0 nM
[19] = target: Glucocorticoid receptor (Homo sapiens) (UniProt P04150); assay: GR (h) CEREP ligand profiling; conditions: filed as agonist, Compound concentration 10.0 uM
[20] = target: Mitogen-activated protein kinase kinase kinase 9 (Homo sapiens) (UniProt P80192); conditions: Compound concentration 1000.0 nM
[21] = target: Serine/threonine-protein kinase BRSK1 (Homo sapiens) (UniProt Q8TDC3); conditions: Compound concentration 1000.0 nM
[22] = target: Peroxisome proliferator-activated receptor gamma (Homo sapiens) (UniProt P37231); assay: PPARgamma (h) CEREP ligand profiling; conditions: filed as agonist, Compound concentration 10.0 uM
[23] = target: Serine/threonine-protein kinase STK11 (Homo sapiens) (UniProt Q15831); conditions: Compound concentration 1000.0 nM
[24] = target: Platelet-derived growth factor receptor alpha (Homo sapiens) (UniProt P16234); conditions: Compound concentration 1000.0 nM
[25] = target: Mitotic checkpoint serine/threonine-protein kinase BUB1 (Homo sapiens) (UniProt O43683); conditions: Compound concentration 1000.0 nM
Sequence of Mitotic checkpoint serine/threonine-protein kinase BUB1 (Homo sapiens) (O43683 whole entry, looked up): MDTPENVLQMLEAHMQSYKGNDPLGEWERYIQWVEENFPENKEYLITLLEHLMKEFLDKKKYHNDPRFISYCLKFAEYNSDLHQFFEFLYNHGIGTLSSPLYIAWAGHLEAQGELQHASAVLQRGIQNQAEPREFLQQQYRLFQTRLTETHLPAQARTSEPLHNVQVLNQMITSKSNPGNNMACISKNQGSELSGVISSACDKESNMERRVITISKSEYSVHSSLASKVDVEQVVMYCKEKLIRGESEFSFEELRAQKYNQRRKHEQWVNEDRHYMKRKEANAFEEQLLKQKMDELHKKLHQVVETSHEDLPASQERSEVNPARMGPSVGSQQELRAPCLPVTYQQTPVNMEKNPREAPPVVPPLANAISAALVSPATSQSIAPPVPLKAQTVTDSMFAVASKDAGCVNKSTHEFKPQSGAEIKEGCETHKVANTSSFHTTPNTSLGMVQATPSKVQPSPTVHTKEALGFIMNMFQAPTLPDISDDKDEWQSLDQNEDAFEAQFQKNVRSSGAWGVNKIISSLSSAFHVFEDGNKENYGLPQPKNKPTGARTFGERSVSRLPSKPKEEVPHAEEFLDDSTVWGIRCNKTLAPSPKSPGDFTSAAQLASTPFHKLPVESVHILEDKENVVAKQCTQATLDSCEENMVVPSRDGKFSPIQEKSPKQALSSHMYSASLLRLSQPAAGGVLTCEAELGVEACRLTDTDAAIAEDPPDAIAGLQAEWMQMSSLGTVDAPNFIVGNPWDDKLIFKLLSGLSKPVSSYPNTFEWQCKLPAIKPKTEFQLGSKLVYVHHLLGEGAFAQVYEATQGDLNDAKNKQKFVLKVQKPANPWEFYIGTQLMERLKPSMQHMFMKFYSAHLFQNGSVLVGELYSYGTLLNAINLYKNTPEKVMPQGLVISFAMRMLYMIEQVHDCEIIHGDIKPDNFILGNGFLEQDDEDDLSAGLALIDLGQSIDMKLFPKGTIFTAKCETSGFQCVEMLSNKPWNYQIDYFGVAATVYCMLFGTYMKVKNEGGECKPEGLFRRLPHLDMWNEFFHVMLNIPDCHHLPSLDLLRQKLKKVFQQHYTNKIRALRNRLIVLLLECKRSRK

[26] = system: Tyrosine-protein kinase ABL1 (Homo sapiens), P00519 [T315I]; conditions: Compound concentration 1000.0 nM
[27] = target: Dual specificity mitogen-activated protein kinase kinase 4 (Homo sapiens) (UniProt P45985); conditions: Compound concentration 1000.0 nM
[28] = target: Tyrosine-protein kinase Lyn (Homo sapiens) (UniProt P07948); conditions: Compound concentration 1000.0 nM
[29] = system: Epidermal growth factor receptor (Homo sapiens), P00533 [L858R,T790M]; conditions: Compound concentration 1000.0 nM
[30] = target: Serine/threonine-protein kinase WNK2 (Homo sapiens) (UniProt Q9Y3S1); conditions: Compound concentration 1000.0 nM
[31] = target: Cyclin-dependent kinase-like 2 (Homo sapiens) (UniProt Q92772); conditions: Compound concentration 1000.0 nM
[32] = target: cGMP-dependent protein kinase 2 (Homo sapiens) (UniProt Q13237); conditions: Compound concentration 1000.0 nM
[33] = target: Serine/threonine-protein kinase SIK2 (Homo sapiens) (UniProt Q9H0K1); conditions: Compound concentration 1000.0 nM
Sequence of Serine/threonine-protein kinase SIK2 (Homo sapiens) (Q9H0K1 whole entry, looked up): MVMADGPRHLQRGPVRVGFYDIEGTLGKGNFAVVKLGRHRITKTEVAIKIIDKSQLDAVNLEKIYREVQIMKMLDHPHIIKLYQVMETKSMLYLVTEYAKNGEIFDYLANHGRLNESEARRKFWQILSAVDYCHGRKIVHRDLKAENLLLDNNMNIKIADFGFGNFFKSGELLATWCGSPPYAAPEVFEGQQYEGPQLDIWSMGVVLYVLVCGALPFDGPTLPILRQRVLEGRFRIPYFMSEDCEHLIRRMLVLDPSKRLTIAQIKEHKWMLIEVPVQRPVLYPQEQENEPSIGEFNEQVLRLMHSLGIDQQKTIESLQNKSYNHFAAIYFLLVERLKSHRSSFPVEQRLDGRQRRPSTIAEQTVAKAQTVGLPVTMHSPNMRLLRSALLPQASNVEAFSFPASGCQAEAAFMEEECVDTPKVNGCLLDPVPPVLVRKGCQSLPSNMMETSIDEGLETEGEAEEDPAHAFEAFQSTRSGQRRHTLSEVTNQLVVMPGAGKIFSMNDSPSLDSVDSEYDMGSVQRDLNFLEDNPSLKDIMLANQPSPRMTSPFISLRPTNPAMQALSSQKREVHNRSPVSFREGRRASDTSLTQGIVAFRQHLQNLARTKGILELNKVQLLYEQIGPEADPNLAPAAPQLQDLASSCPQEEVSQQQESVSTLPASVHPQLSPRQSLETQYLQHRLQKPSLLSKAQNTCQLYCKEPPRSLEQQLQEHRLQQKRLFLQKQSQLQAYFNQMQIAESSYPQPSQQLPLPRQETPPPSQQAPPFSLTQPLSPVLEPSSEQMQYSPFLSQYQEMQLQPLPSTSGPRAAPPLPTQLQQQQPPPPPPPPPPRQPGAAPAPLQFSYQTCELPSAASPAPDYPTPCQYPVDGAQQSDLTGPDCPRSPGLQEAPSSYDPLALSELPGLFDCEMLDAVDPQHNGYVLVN

[34] = target: Interleukin-1 receptor-associated kinase 1 (Homo sapiens) (UniProt P51617); conditions: Compound concentration 1000.0 nM
[35] = target: Fibroblast growth factor receptor 1 (Homo sapiens) (UniProt P11362); conditions: Compound concentration 1000.0 nM
[36] = target: Serine/threonine-protein kinase 33 (Homo sapiens) (UniProt Q9BYT3); conditions: Compound concentration 1000.0 nM

Sequence of Muscarinic acetylcholine receptor M3 (Homo sapiens) (P20309 whole entry, looked up, the tested form may be a part): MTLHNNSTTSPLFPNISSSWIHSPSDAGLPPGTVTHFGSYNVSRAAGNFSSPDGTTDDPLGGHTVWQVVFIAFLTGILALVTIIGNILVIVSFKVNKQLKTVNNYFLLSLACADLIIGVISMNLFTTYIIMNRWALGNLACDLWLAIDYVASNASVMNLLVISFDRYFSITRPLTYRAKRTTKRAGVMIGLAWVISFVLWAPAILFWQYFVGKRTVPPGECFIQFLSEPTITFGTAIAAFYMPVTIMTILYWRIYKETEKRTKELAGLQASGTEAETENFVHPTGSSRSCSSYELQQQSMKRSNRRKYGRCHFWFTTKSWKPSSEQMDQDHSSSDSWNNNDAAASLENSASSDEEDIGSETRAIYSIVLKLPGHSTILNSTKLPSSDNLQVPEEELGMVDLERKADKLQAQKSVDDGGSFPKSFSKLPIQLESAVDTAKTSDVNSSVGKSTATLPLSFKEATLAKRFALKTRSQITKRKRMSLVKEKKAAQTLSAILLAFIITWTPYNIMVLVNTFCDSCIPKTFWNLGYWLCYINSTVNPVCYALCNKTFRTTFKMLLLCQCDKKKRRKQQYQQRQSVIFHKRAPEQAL

Q: For `CNC(=O)Nc1ccc2c(c1)CC[C@@]21OC(=O)N(CC(=O)N(Cc2ccc(F)cc2)[C@@H](C)C(F)(F)F)C1=O` [A-485], which inhibition [1] is on record?
A: 9.06%

Q: What about the residual activity [2] of the same compound?
A: 100%

Q: And the residual activity [3]?
A: 83%

Q: And the inhibition ([4]; filed as antagonist; Compound concentration 10.0 uM)?
A: 4%

Q: What about the inhibition [5] of the same compound?
A: 47%

Q: And the residual activity [6]?
A: 69%

Q: And the residual activity [7]?
A: 80%

Q: And the residual activity [8]?
A: 100%

Q: And the residual activity [9]?
A: 82%

Q: And the inhibition [10]?
A: 95.6%

Q: What about the residual activity [11] of the same compound?
A: 100%

Q: And the residual activity [12]?
A: 96%

Q: What about the inhibition [13] of the same compound?
A: 5.99%

Q: And the residual activity [14]?
A: 96%

Q: And the residual activity [15]?
A: 98%

Q: And the inhibition [16]?
A: -5%

Q: And the residual activity [17]?
A: 92%

Q: And the residual activity [18]?
A: 99%

Q: What about the inhibition [19] of the same compound?
A: 13%

Q: And the residual activity [20]?
A: 89%

Q: What about the residual activity [21] of the same compound?
A: 97%

Q: And the inhibition [22]?
A: 10%

Q: What about the residual activity [23] of the same compound?
A: 100%

Q: What about the residual activity [24] of the same compound?
A: 93%

Q: And the residual activity [25]?
A: 66%

Q: And the residual activity [26]?
A: 100%

Q: What about the residual activity [27] of the same compound?
A: 100%

Q: What about the residual activity [28] of the same compound?
A: 89%

Q: What about the residual activity [29] of the same compound?
A: 91%

Q: What about the residual activity [30] of the same compound?
A: 100%

Q: And the residual activity [31]?
A: 100%

Q: And the residual activity [32]?
A: 86%

Q: And the residual activity [33]?
A: 88%

Q: What about the residual activity [34] of the same compound?
A: 71%

Q: What about the residual activity [35] of the same compound?
A: 82%

Q: And the residual activity [36]?
A: 100%

Q: Which inhibition [1] does the source give for `CNC(=O)Nc1ccc2c(c1)[C@@]1(CC2)OC(=O)N(CC(=O)N(Cc2ccc(F)cc2)[C@@H](C)C(F)(F)F)C1=O` [A-486] here?
A: 8.23%

Q: And the residual activity [2]?
A: 100%

Q: And the residual activity [3]?
A: 63%

Q: What about the inhibition ([4]; filed as antagonist, Compound concentration 10.0 uM) of the same compound?
A: 2%

Q: What about the inhibition [5] of the same compound?
A: 41%

Q: What about the residual activity [6] of the same compound?
A: 82%

Q: And the residual activity [7]?
A: 87%

Q: And the residual activity [8]?
A: 99%

Q: And the residual activity [9]?
A: 86%

Q: What about the inhibition [10] of the same compound?
A: 31%

Q: What about the residual activity [11] of the same compound?
A: 97%

Q: What about the residual activity [12] of the same compound?
A: 99%

Q: What about the inhibition [13] of the same compound?
A: 2.78%

Q: What about the residual activity [14] of the same compound?
A: 88%

Q: What about the residual activity [15] of the same compound?
A: 100%

Q: And the inhibition [16]?
A: -8%

Q: What about the residual activity [17] of the same compound?
A: 100%

Q: And the residual activity [18]?
A: 57%

Q: And the inhibition [19]?
A: 16%

Q: What about the residual activity [20] of the same compound?
A: 100%

Q: What about the residual activity [21] of the same compound?
A: 100%

Q: And the inhibition [22]?
A: 1%

Q: What about the residual activity [23] of the same compound?
A: 100%

Q: What about the residual activity [24] of the same compound?
A: 83%

Q: And the residual activity [25]?
A: 77%

Q: What about the residual activity [26] of the same compound?
A: 87%

Q: What about the residual activity [27] of the same compound?
A: 95%

Q: And the residual activity [28]?
A: 100%

Q: What about the residual activity [29] of the same compound?
A: 83%

Q: What about the residual activity [30] of the same compound?
A: 59%

Q: And the residual activity [31]?
A: 83%

Q: What about the residual activity [32] of the same compound?
A: 85%

Q: What about the residual activity [33] of the same compound?
A: 88%

Q: What about the residual activity [34] of the same compound?
A: 88%

Q: What about the residual activity [35] of the same compound?
A: 84%

Q: And the residual activity [36]?
A: 100%
